Activity calls are given as the source filed them. No cut-off for these calls is given here.
Assays:
HCT-116 = test: Cytotoxicity against human HCT-116 cells assessed as inhibition of cell growth by MTT assay; type: functional, cell-based
Splenocyte [1] = test: Immunosuppressive activity in BALB/c mouse splenocytes assessed as reduction in LPS-induced mouse B-lymphocytes proliferation incubated for 48 hrs by MTT assay; type: functional, cell-based
HT-29 = test: Cytotoxicity against human HT-29 cells assessed as inhibition of cell growth by MTT assay; type: functional, cell-based
HeLa = test: Cytotoxicity against human HeLa cells assessed as inhibition of cell growth by MTT assay; type: functional, cell-based
A549 = test: Cytotoxicity against human A549 cells assessed as inhibition of cell growth by MTT assay; type: functional, cell-based
L02 = test: Cytotoxicity against human L02 cells assessed as inhibition of cell growth by MTT assay; type: toxicity, cell-based
[2] = Selectivity index, ratio of CC50 for cytotoxicity in BALB/c mouse splenocytes to EC50 for immunosuppressive activity in BALB/c mouse splenocytes assessed as reduction in LPS-induced mouse B-lymphocytes proliferation; type: toxicity, cell-based; details: read-out: Ratio CC50/EC50
[3] = Cytotoxicity against BALB/c mouse Splenocyte assessed as reduction in cell viability incubated for 48 hrs by MTT assay; type: toxicity, cell-based; details: splenocytes
Splenocyte [4] = test: Immunosuppressive activity in BALB/c mouse splenocyte assessed as reduction in ConA-induced mouse T-lymphocytes proliferation incubated for 48 hrs by MTT assay; type: functional, cell-based
MCF7 = test: Cytotoxicity against human MCF7 cells assessed as inhibition of cell growth by MTT assay; type: functional, cell-based
[5] = Selectivity index, ratio of CC50 for cytotoxicity in BALB/c mouse splenocytes to EC50 for immunosuppressive activity in BALB/c mouse splenocytes assessed as reduction in ConA-induced mouse T-lymphocytes proliferation; type: toxicity, cell-based; details: read-out: Ratio CC50/EC50
[6] = Selectivity index, ratio of CC50 for cytotoxicity against MDCK cells to EC50 for antiviral activity against Influenza A virus A/PR/8 (H1N1) infected in MDCK cells; type: toxicity, cell-based; details: dog, read-out: Ratio CC50/EC50
[7] = Cytotoxicity against MDCK cells assessed as reduction in cell viability incubated for 48 hrs by CellTiter-Glo assay; type: toxicity, cell-based, Canis lupus familiaris; details: dog
Influenza A virus = test: Antiviral activity against Influenza A virus A/PR/8 (H1N1) infected in MDCK cells assessed as inhibition of viral growth incubated for 48 hrs by indirect immunofluorescence assay; type: functional, organism-based
[8] = Selectivity index, ratio of CC50 for cytotoxicity against human HEp-2 cells to EC50 for antiviral activity against Respiratory syncytial virus infected in human HEp-2 cells; type: toxicity, cell-based; details: read-out: Ratio CC50/EC50
[9] = system: Respiratory syncytial virus; test: Antiviral activity against Respiratory syncytial virus infected in human HEp-2 cells assessed as inhibition of virus-induced cytopathic effect measured after 6 days by CellTiter-Glo assay; type: functional, organism-based; details: HEp-2, 144 h
[10] = Cytotoxicity against human HEp-2 cells assessed as reduction in cell viability incubated for 6 days by CellTiter-Glo assay; type: toxicity, cell-based; details: time 6 day
[11] = Cytotoxicity against African green monkey Vero cells incubated for 48 hrs by DAPI staining based assay; type: toxicity, cell-based; details: chlorocebus sabaeus
[12] = Selectivity index, ratio of CC50 for cytotoxicity against African green monkey Vero cells to EC50 for antiviral activity against Dengue virus 3 infected in african green monkey Vero cells; type: toxicity, cell-based; details: read-out: Ratio CC50/EC50
dengue virus type 3 = test: Antiviral activity against Dengue virus 3 infected in african green monkey Vero cells assessed as reduction in viral protein expression incubated for 48 hrs by indirect immunofluorescence assay; type: functional, organism-based

| SMILES | Activity (HCT-116) | EC50 (Splenocyte [1]) | Activity (HT-29) | Activity (HeLa) | Activity (A549) | Activity (L02) | selectivity ratio [2] | CC50 at 48 h [3] | EC50 (Splenocyte [4]) | Activity (MCF7) | selectivity ratio [5] | selectivity ratio [6] | CC50 at 48 h [7] | EC50 (Influenza A virus) | selectivity ratio [8] | EC50 [9] | CC50 at 144 h [10] | CC50 at 48 h [11] | selectivity ratio [12] | EC50 (dengue virus type 3) |
| --- | --- | --- | --- | --- | --- | --- | --- | --- | --- | --- | --- | --- | --- | --- | --- | --- | --- | --- | --- | --- |
| COC(=O)[C@@]12C(=O)[C@](C)(C(=O)c3cc(OC)c(O)c(O)c3C(C)=O)C(=O)[C@]1(C)C(C)=C[C@H]1[C@]3(C)CC[C@H](OC(C)=O)C(C)(C)[C@H]3CC[C@@]12C | inactive | 8.8 µM | inactive | inactive | inactive | Non-Toxic | 2.4 | 21 µM | 11 µM | inactive | 1.9 |  |  |  |  |  |  |  |  |  |
| COc1c(C)c2c(c(O)c1C/C=C(\C)CCC(=O)OCCN1CCOCC1)C(=O)OC2 [MYCOPHENOLATE MOFETIL] |  | 0.48 µM |  |  |  |  |  |  |  |  |  |  |  |  |  |  |  |  |  |  |
| COC(=O)[C@@]12C(=O)[C@](C)(C(=O)c3cc(OC)c(O)c(O)c3C(C)=O)C(=O)[C@]1(C)C(C)=C[C@H]1[C@]3(C=O)CC[C@H](OC(C)=O)C(C)(C)[C@H]3CC[C@@]12C | inactive | 23 µM | inactive | inactive | inactive | Non-Toxic | 1.9 | 44 µM | 23 µM | inactive | 1.9 | 8.1 | 114 µg/mL | 14 µg/mL |  |  |  |  |  |  |
| COC(=O)[C@@]12C(=O)[C@](C)(Cc3c(O)c(C)cc(C(C)=O)c3O)C(=O)[C@]1(C)C(C)=C[C@H]1[C@]3(CO)CC[C@H](OC(C)=O)C(C)(C)[C@H]3CC[C@@]12C | inactive | 50 µM | inactive | inactive | inactive | Non-Toxic | > 1 | > 50 µM | > 50 µM | inactive |  |  |  |  |  |  |  |  |  |  |
| COC(=O)C1=C(C[C@@H](C)[C@]2(C)C(=O)[C@]3(C)C(C)=C[C@H]4[C@]5(C=O)CC[C@H](OC(C)=O)C(C)(C)[C@H]5CC[C@]4(C)[C@]3(C(=O)OC)C2=O)O[C@](C)(/C=C/C=C/[C@H](C)O)C1=O | inactive | 12 µM | inactive | inactive | inactive | Non-Toxic | > 4.2 | > 50 µM | 27 µM | inactive | > 1.9 |  |  |  |  |  |  |  |  |  |
| NC(=O)c1ncn([C@@H]2O[C@H](CO)[C@@H](O)[C@H]2O)n1 [RIBAVIRIN] |  |  |  |  |  |  |  |  |  |  |  | > 71 | > 300 µM | 4.2 µM | 18 | 5.4 µM | 95 µM |  |  |  |
| CC/C=C/C=C/[C@@]1(C)OC(C[C@H](C)[C@]2(C)C(=O)[C@]3(C)C(C)=C[C@H]4[C@]5(C=O)CC[C@H](OC(C)=O)C(C)(C)[C@H]5CC[C@]4(C)[C@]3(C(=O)OC)C2=O)=C(C(=O)OC)C1=O |  | 8.5 µM |  |  |  |  | 2.2 | 19 µM | 8.5 µM |  | 2.2 |  |  |  |  |  |  |  |  |  |
| C#C[C@@]1(O)[C@H](O)[C@@H](CO)O[C@H]1n1ccc2c(N)ncnc21 |  |  |  |  |  |  |  |  |  |  |  |  |  |  |  |  |  | 74 µM | 67 | 1.1 µM |
| COC(=O)[C@@]12C(=O)[C@](C)(Cc3c(O)c(C)cc(C(C)=O)c3O)C(=O)[C@]1(C)C(C)=C[C@H]1[C@]3(C=O)CC[C@H](OC(C)=O)C(C)(C)[C@H]3CC[C@@]12C | inactive | > 50 µM | inactive | inactive | inactive | Non-Toxic |  | > 50 µM | 19 µM | inactive | > 2.6 | > 26 | > 500 µg/mL | 19 µg/mL |  |  | 43 µg/mL | 73 µg/mL | < 1 | > 100 µg/mL |
| CC/C=C/C=C/[C@@]1(C)OC(C[C@@H](C)[C@]2(C)C(=O)[C@]3(C)C(C)=C[C@H]4[C@]5(C=O)CC[C@H](OC(C)=O)C(C)(C)[C@H]5CC[C@]4(C)[C@]3(C(=O)OC)C2=O)=C(C(=O)OC)C1=O |  | 7.5 µM |  |  |  |  | 3.5 | 26 µM | 23 µM |  | 1.1 |  |  |  |  |  |  |  |  |  |
